Test results as given in US7259236B2, “RBP1L1, a novel retinoblastoma binding protein-related gene encoding an antigenic epitope and methods of using thereof” (Regents of the University of California, priority 2001, dated 2007).

How the values were obtained:
[1] = tested on: purified specific IgG binding to GST-RBP1L1 fusion protein; assay: Inhibition by synthetic peptides of purified specific IgG binding to GST-RBP1L1 fusion protein (Western blot); design: species or system human; conditions: peptide 5 μg/ml, purified specific IgG 0.5 μg/ml, fusion protein from clone 151
Protocol: To determine the minimal number of amino acids necessary for antibody binding, synthetic peptides of various lengths were tested for their ability to inhibit the binding of purified specific IgG to GST-RBP1L1 fusion protein by Western blot analysis. The synthetic peptides tested were:
[…] The antigen and purified IgG mixture was agitated at 4° C. overnight, and the inhibition of antibody binding was assessed by Western blotting using GST-RBP1L1 fusion protein as the target antigen.
The minimum number of amino acids required for the antibody binding was determined by testing various truncated synthetic peptides in ELISAs and on Western blots. The following set of peptides was generated by sequentially reducing the 10-amino acid peptide by one amino acid from either the amino terminus or the carboxyl terminus:
(§1) The wells of a 96-well ELISA plate were coated with 100 μl of a peptide (5 μg/ml). The specific human IgG (200 μg/ml) was serially diluted from 1:250 to 1:4,000.

purified specific IgG = assay: ELISA with synthetic peptide antigens; format: binding, human; conditions: ELISA and Western blot, truncated synthetic peptides; plate coated with 5 μg/ml peptide, IgG 200 μg/ml diluted 1:250 to 1:4,000
Protocol: The binding of purified specific IgG to synthetic peptides was assessed by ELISA. 96-well polystyrene plates (Reacti-Bind maleic anhydride-activated plates, Pierce) coated with each of the peptides (100 μl of 5 μg/ml) in PBS, incubated overnight at 4° C., and then blocked with 1% bovine serum albumin. Purified specific IgG (200 μg/ml) was serially diluted 1:250, 1:500, 1:1000, 1:2000, and 1:4000, then added in triplicate to peptide-coated wells (500 ng per well), and incubated for 3 hours at room temperature. Peroxidase-conjugated goat anti-human IgG (Pierce) was added at room temperature for 1 hour, followed by the addition of 400 μg/ml of o-phenylenediamine dihydrochloride in peroxide substrate solution. Reactivity was measured at 490 nm. Background absorbance without the primary antibody was subtracted from each sample's absorbance.
as §1

Sequence | ability to competitively inhibit the binding of purified specific IgG to the GST-RBP1L1 fusion protein [1] | epitope recognized by the purified specific human IgG (purified specific IgG)
IKPSLGSKKN (listed as Homo sapiens) | completely inhibited | –
IKPSLGSKK (listed as Homo sapiens) | completely inhibited | minimal epitope recognized
